Here are results for eight molecules from patent publication US20250163044A1, “COMPOUNDS” (PSYLO PTY LTD, priority 2021, published 2025).

The structures appear in SMILES notation. Where “and” joins values, the source holds several entries; their conditions need not be identical. Equal values may be shown once. Read-outs that look alike come from different tables or passages of the source. Where only a bound is given, the exact number is not on record here.

One data set concerns the target T1, 5-HT2B receptor (Homo sapiens, UniProt P41595).
T1 construct: host or cells: CHO-K1
Briefly: FLIPR Ca2+ flux functional assay, agonist activity at 5-HT2B. In kind it is cell-based. As to conditions: CHO-K1 cells, Ca2+ flux; for EC50: read-out: 5-HT2B EC50. As to the method:
(§1) Activity at 5-HT2A, 5-HT2B and 5-HT2C receptors was determined using a FLIPR Ca2+ flux assay at WuXi AppTec Co. Ltd. (Hong Kong) Discovery Biology Unit according to their standard protocols. Briefly, stably transfected cells expressing the receptor of interest (HEK293 for 5-HT2A and 5-HT2C; CHO-K1 for 5-HT2B) were grown and plated in a 384 well plate and incubated at 37° C. and 5% CO2 overnight. A 250 mM stock solution of probenecid in FLIPR calcium assay buffer (10 mL) was freshly prepared and combined with a fluorescent dye (Fluo-4 Direct) to give a final assay concentration of 2.5 mM. Reference compounds were 4-fold serially diluted and the screening compounds were 3-fold serially diluted in 100% DMSO for 10 points using Agilent Bravo, and 750 nL was added to a 384 well compound plate using Echo along with 30 μL assay buffer. The fluorescent dye was then added to the assay plate along with assay buffer to a final volume of 40 μL. The cell plate was incubated for 50 min at 37° C. and 5% CO2 and placed into the FLIPR Tetra along with the compound plate. 10 μL of references and compounds were then transferred from the compound plate into the cell plate and the fluorescent signal was read.
(Calcium assays in cells follow changes in intracellular calcium, usually with a dye or a luminescent sensor.)

For the next data set, the target named is T2, 5-HT2C receptor (Homo sapiens, UniProt P28335).
T2 construct: host or cells: HEK293
T2 sequence (P28335 33-458): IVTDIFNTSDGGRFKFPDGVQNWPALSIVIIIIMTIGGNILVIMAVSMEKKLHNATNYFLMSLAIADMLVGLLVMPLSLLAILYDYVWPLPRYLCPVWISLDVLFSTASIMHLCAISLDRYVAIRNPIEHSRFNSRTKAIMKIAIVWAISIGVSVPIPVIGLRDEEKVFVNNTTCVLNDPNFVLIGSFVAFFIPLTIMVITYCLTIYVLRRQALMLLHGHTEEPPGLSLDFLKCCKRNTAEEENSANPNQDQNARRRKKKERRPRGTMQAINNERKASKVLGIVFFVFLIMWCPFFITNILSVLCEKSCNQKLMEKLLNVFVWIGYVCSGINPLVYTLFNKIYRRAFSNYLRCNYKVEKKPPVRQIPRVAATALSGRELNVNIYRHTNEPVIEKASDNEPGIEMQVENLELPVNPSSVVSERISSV
Description: FLIPR Ca2+ flux functional assay, agonist activity at 5-HT2C. Type of data set: cell-based. Conditions: HEK293 cells, Ca2+ flux; for EC50: read-out: 5-HT2C EC50. The protocol: as §1

For the next data set, the target named is T3, 5-HT2A receptor (Homo sapiens, UniProt P28223).
T3 construct: host or cells: HEK293
T3 sequence (P28223 whole entry): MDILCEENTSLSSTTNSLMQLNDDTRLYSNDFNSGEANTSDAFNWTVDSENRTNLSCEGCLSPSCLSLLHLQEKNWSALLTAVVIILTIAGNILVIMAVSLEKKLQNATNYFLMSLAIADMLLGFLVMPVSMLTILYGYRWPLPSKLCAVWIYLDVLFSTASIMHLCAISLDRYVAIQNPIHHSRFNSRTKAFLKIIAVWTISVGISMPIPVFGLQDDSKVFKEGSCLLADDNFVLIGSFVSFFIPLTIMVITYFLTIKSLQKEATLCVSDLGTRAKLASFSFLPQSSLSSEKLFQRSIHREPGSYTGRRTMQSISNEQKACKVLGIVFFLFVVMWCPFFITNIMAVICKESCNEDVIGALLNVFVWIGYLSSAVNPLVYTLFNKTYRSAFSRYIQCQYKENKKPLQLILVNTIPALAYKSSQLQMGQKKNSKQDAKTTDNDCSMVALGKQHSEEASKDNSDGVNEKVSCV
Briefly: FLIPR Ca2+ flux functional assay, agonist activity at 5-HT2A. Type of data set: cell-based. Conditions: HEK293 cells, Ca2+ flux; for EC50: read-out: 5-HT2A EC50. As to the method: as §1

Data set [1] is described as follows: In vivo pharmacokinetics: plasma and brain exposure after IP administration. Also noted: species or system male C57BL/6 mice. As to conditions: for Kp at 0.083 h / Kp at 0.5 h: brain/plasma.
Description: The systemic exposure of selected examples was studied in non-fasted male C57BL/6 mice weighing between 18.9-25.5 g. Mice had access to food and water ad libitum throughout the pre- and post-dose sampling period.
On the day of dosing, the formulation of each compound was prepared by dissolving solid compound in phosphate buffer saline (50 mM) using vortexing, creating colourless solutions (pH 6.4-6.5) for each compound.
Compounds were dosed to mice by IP injection (10 mL/kg dose volume via a 27G needle; n=9 mice per compound) and blood samples were collected at 5 and 30 min; 1, 2 and 4 h post-dose (n=3 mice per time point for each compound). A maximum of three blood samples were obtained from each mouse, with plasma samples being taken via submandibular bleed (approximately 120 μL). Once collected, blood samples were centrifuged immediately, supernatant plasma was removed, and stored at −80° C. until analysis by LCMS. In addition, at the 5 and 30 min and 4 h post-dose time points, the whole brain was rapidly removed from the carcass soon after the blood collection. The whole brains were blotted to remove excess blood, placed into pre-weighed polypropylene vials, and weighed. The brains were snap frozen in dry ice and subsequently stored frozen (−80° C.) until analysis.
Test compound standard solutions were diluted from a concentrated stock solution (32 mM in H2O) using 50% can in H2O (v/v) and a calibration curve was prepared in a matched matrix to the test samples.
Plasma: The plasma calibration curve was prepared by spiking aliquots of blank mouse plasma (25 μL) with test compound standard solutions (5 μL) and internal standard solution (5 μL of diazepam, 5 μg/mL in 50% acetonitrile in water). Test plasma samples (25 μL) were thawed, mixed, and then spiked with internal standard solution (5 μL). Plasma protein precipitation was performed by addition of acetonitrile (3-fold volume ratio) and thorough vortex mixing. Samples were centrifuged (RCF=9391×g) for 3 minutes and the supernatant (90 μL) was collected for analysis.
Tissue: Pre-weighed tissue samples (brain) were homogenised using a glass rod in buffer containing an EDTA/potassium fluoride solution (0.1 M/4 mg/mL) as a stabilisation cocktail to minimise the potential for ex vivo degradation (3 mL cocktail/g tissue). The tissue homogenate was briefly centrifuged (RCF=79×g) for 10 seconds to separate the foam layer before transferring an aliquot of the tissue homogenate (200 μL) to a fresh Eppendorf tube for sample extraction. Calibration standards were prepared by spiking blank brain homogenate (200 μL) with the solution standards (10 μL) and the internal standard (10 μL). Study samples were similarly prepared, except that acetonitrile (10 μL) was added instead of solution standards to maintain the same volume. Protein precipitation was carried out by the addition of a 3-fold volume of acetonitrile, followed by vortex mixing and centrifugation (RCF=9391×g) for 3 min to recover the supernatant for analysis.
Replicate analysis: Triplicate analytical replicate (ARs) samples were prepared similarly to the standards for each sample type at three concentrations (50, 500 and 2,000 ng/mL) and repeat injections of these ARs were included throughout the analytical run to assess assay performance. The extraction of the test compound from the standards and ARs were conducted as described above.
Setting [2] is: 0.083 h, IP 10 mg/kg, individual mouse, 10 mg/kg.
[3] abbreviates: 0.5 h, IP 10 mg/kg, individual mouse, 10 mg/kg.
[4] abbreviates: 4 h, IP 10 mg/kg, individual mouse.
Where [5] appears, read: mouse, plasma, male C57BL/6 mice, IP 10 mg/kg.

T1 sequence (P41595 whole entry): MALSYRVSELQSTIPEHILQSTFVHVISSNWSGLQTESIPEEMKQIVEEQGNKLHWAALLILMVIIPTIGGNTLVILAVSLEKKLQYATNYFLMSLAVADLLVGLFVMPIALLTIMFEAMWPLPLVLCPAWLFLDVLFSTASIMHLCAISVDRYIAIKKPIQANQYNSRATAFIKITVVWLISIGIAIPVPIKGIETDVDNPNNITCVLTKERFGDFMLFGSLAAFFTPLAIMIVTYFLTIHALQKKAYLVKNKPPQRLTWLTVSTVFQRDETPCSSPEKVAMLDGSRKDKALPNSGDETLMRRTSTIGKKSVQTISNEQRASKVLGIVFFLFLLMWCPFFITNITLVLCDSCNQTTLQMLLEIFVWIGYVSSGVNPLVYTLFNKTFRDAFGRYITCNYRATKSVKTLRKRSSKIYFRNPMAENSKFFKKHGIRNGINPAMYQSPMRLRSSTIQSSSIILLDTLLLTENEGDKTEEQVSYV

Broadly, the Emax is the maximal effect, on the per cent scale that the assay sets. Usually EC50 stands for the concentration that produces a half-maximal response. What is called Cmax is the peak of the concentration-time curve. In general, Tmax refers to the time at which the peak concentration occurs. Regarding `COc1nccc2[nH]cc(CCN(C)C)c12` [Example P-5, 2-(4-methoxy-1H-pyrrolo[3,2-c]pyridin-3-yl)-N,N-dimethylethan-1-amine], the Emax at 5-HT2B receptor was -0.87%; on 5-HT2C receptor, 79.1%; at 5-HT2A receptor, 56.2%. Also, the concentration for a half-maximal effect (EC50) was over 10000 nM at 5-HT2B receptor, 38.4 nM on 5-HT2C receptor and 24.4 nM on 5-HT2A receptor. In addition, the “B:P Ratio, Individual” value in data set [1] (setting [2]) was 0.19 and 0.16; in data set [1] (setting [3]), 2.5 and 2.4. Moreover, the “Plasma Concentration, Individual” value in data set [1] (setting [2]) was 5880 nM and 1970 nM and 8280 nM; in data set [1] (setting [3]) it was 985 nM and 776 nM; in data set [1] (setting [4]), “<LLQ”. For the same molecule, the concentration at 0.5 h in data set [1] (0.083 h, IP 10 mg/kg, individual mouse, 10 mg/kg, read-out: Brain Parenchyma Concentration, Individual) is 230 nM and 365 nM and 1360 nM; in data set [1] (0.5 h, IP 10 mg/kg, individual mouse, 10 mg/kg, read-out: Brain Parenchyma Concentration, Individual) it was 2420 nM and 1860 nM; in data set [1] (male, C57BL/6, mouse, brain, ip, 10 mg/kg, 0.5 h, individual mouse, read-out: Brain Parenchyma Concentration, Individual) it was 1610 nM; in data set [1] (male, C57BL/6, mouse, brain, ip, 10 mg/kg, 0.5 h, n = 3, read-out: Brain Parenchyma Concentration, Mean ± SD) it was 1970 ± 414 nM; in data set [1] (male, C57BL/6, mouse, plasma, ip, 10 mg/kg, 0.5 h, individual mouse, read-out: Plasma Concentration, Individual), 815 nM; in data set [1] (male, C57BL/6, mouse, plasma, ip, 10 mg/kg, 0.5 h, n = 3, read-out: Plasma Concentration, Mean ± SD) it was 859 ± 111 nM. For the same molecule, in data set [1] (setting [4]), the “Brain Parenchyma Concentration, Individual” value was “<LLQ”. For the same molecule, the concentration at 0.083 h was 984 ± 540 nM in data set [1] (male, C57BL/6, mouse, brain, ip, 10 mg/kg, 0.083 h, n = 3, read-out: Brain Parenchyma Concentration, Mean ± SD) and 5380 ± 3180 nM in data set [1] (male, C57BL/6, mouse, plasma, ip, 10 mg/kg, 0.083 h, n = 3, read-out: Plasma Concentration, Mean ± SD). Besides, the Kp at 0.083 h in data set [1] (male, C57BL/6, mouse, ip, 10 mg/kg, 0.083 h, individual mouse, read-out: B:P Ratio, Individual) is 0.21; in data set [1] (male, C57BL/6, mouse, ip, 10 mg/kg, 0.083 h, n = 3, read-out: B:P Ratio, Mean ± SD) it was 0.19 ± 0.022. Further, the Kp at 0.5 h amounted to 2 in data set [1] (male, C57BL/6, mouse, ip, 10 mg/kg, 0.5 h, individual mouse, read-out: B:P Ratio, Individual) and 2.3 ± 0.26 in data set [1] (male, C57BL/6, mouse, ip, 10 mg/kg, 0.5 h, n = 3, read-out: B:P Ratio, Mean ± SD). The molecule further yielded a maximum concentration (Cmax) in data set [1] (setting [5]) of 5380 nM. Further, the Tmax in data set [1] (setting [5]) is 5 min. Further, in data set [1] (mouse, plasma, male C57BL/6 mice, IP 10 mg/kg, read-out: Plasma AUC0-last), the AUC(0-t) worked out at 1.63 µM·h.
With `CCN(C)CCc1c[nH]c2ccc(OC)nc12` [Example P-13, N-ethyl-2-(5-methoxy-1H-pyrrolo[3,2-b]pyridin-3-yl)-N-methylethan-1-amine], the Emax at 5-HT2B receptor is 2.25%; on 5-HT2C receptor it was 95.8%; on 5-HT2A receptor, 79.6%. The concentration giving a half-maximal response (EC50) on 5-HT2B receptor is over 10000 nM; at 5-HT2C receptor it was 31.9 nM; at 5-HT2A receptor, 10.1 nM.
As to `CN(C)CCc1c[nH]c2ncc(F)cc12` [Example P-24, N,N-dimethyl-2-(5-fluoro-1H-pyrrolo[2,3-b]pyridin-3-yl)ethan-1-amine], the Emax on 5-HT2B receptor stood at 6.16%; on 5-HT2C receptor, 24.7%; at 5-HT2A receptor, 56.5%. Also, the EC50 is over 10000 nM on 5-HT2B receptor, over 10000 nM on 5-HT2C receptor and 80.8 nM at 5-HT2A receptor.
As for `COc1cnc2[nH]cc(CCN(C)C(C)C)c2c1` [Example P-21, N-(2-(5-methoxy-1H-pyrrolo[2,3-b]pyridin-3-yl)ethyl)-N-methylpropan-2-amine], the Emax was 4.56% on 5-HT2B receptor, -0.15% at 5-HT2C receptor and 79.8% at 5-HT2A receptor. Moreover, the half-maximal effective concentration (EC50) on 5-HT2B receptor is over 10000 nM; on 5-HT2C receptor it was over 10000 nM; at 5-HT2A receptor it was 109 nM.
`CCCN(CCC)CCc1n[nH]c2cccc(OC)c12` [Example P-44, 2-(4-methoxy-1H-indazol-3-yl)-N,N-dipropylethan-1-amine]: the EC50 came out at 490 nM on 5-HT2B receptor, 1700 nM at 5-HT2C receptor and 259 nM on 5-HT2A receptor.
Regarding `CCN(CC)CCc1n[nH]c2ccc(OC)cc12` [Example P-48, N,N-diethyl-2-(5-methoxy-1H-indazol-3-yl)ethan-1-amine], the EC50 was over 10000 nM at 5-HT2B receptor, over 10000 nM at 5-HT2C receptor and 6990 nM at 5-HT2A receptor.
In the case of `COc1cnc2[nH]cc(CCN(C(C)C)C(C)C)c2c1` [Example P-19, N-isopropyl-N-(2-(5-methoxy-1H-pyrrolo[2,3-b]pyridin-3-yl)ethyl)propan-2-amine], the Emax on 5-HT2B receptor is 13.3%; on 5-HT2C receptor, 0.16%; on 5-HT2A receptor, 112%. Also, the 50% effective concentration (EC50) at 5-HT2B receptor was over 10000 nM; on 5-HT2C receptor, over 10000 nM; on 5-HT2A receptor, 72.9 nM.
Consider `CCN(C)CCc1c[nH]c2ccnc(OC)c12` [Example P-37, N-ethyl-2-(4-methoxy-1H-pyrrolo[3,2-c]pyridin-3-yl)-N-methylethan-1-amine], for which the Emax at 5-HT2B receptor turned out to be 2.6%; on 5-HT2C receptor, 105%; at 5-HT2A receptor, 82.8%. The concentration giving a half-maximal response (EC50) at 5-HT2B receptor was over 10000 nM; at 5-HT2C receptor, 533 nM; on 5-HT2A receptor it was 86.8 nM.
